Series [1] concerns MCF-7 breast cancer cells. The series can be described thus: AlamarBlue viability and proliferation assay of MCF-7 breast cancer cells. The series is classed as cell-based, human. As to conditions: MCF-7 cells. How it is done:
For the biological studies, MCF-7 breast cancer cells were obtained from an immortal cell line from human adenocarcinoma from (primary site) mammary gland and (metastatic site) pleural effusion (ATCC no HTB-22).
MCF-7 breast cancer cells were cultured in Dulbecco's modified Eagle's medium (DMEM), 13.53 g/L with sodium bicarbonate (NaHCO3), 3.7 g/L supplemented with 10% foetal bovine serum (FBS), 1% gentamycin and 5% Penicillin/Streptomycin/Fungizone in 75 cm^3 culture flasks. Cells were subcultured twice a week and incubated at 37° C. with 5% CO2 in a humidified atmosphere. Hanks balanced salt solution (HBSS), supplemented DMEM media and trypsin versene were warmed to 37° C. prior to subculturing. Cells were washed twice with 10 ml Hanks balanced salt solution for 1 minute and were then incubated for 4.5 to 5 minutes at 37° C. with 6 ml trypsin versene to remove the cells from the culture flask. To inactivate the trypsin versene, 10 ml supplemented DMEM was added and the cells were pelleted by centrifugation at 1028 g for 4 minutes with an Allegra™ 25R Centrifuge. The pellet was resuspended in 1 ml supplemented DMEM and 500 μl of the cell suspension was then added to 25 ml of supplemented DMEM media in 75 cm^3 culture flasks.
MCF-7 breast cancer cells, in terms of a first study, and SNO-oesophageal cancer cells, in terms of a second study, were treated with 10 μM silverthiocyanide complexes (1)-(5), as well as their ligands (Ligand-1 to Ligand-5) over a 24 hour incubation period. […] An untreated negative control (UT) was exposed to similar conditions as the treated cells and monitored during the experimental study.
The AlamarBlue® viability and proliferation assay of complexes (1)-(5) for the MCF-7 breast cancer cells is depicted in FIGS. 1A to 1F. The percentage viability of control samples determined by the AlamarBlue® viability and proliferation assay is depicted in FIG. 1A. […] A significant difference (P<0.001) between the control and the treated samples was calculated using Student's T-test and is indicated by an asterisk.
This Figure depicts the percentage viability of MCF-7 cells treated with various concentrations of complex (1) as determined by the AlamarBlue® viability and proliferation assay. […] The asterisk indicates a significant difference between a sample and the control (P<0.001) as calculated with Student's T-test.
FIG. 1C to FIG. 1F represent the dose dependant studies of complexes (2) to (5), respectively. In each of these Figures, the percentage viability of MCF-7 cells treated with various concentrations of complexes (2) to (5) was determined by the AlamarBlue® viability and proliferation assay. […] The asterisk indicates a significant difference between a sample and the control (P<0.001) as calculated with Student's T-test. […]
(In general: Alamar Blue is a resazurin reagent that responds to reducing activity.)

The subject of another series is A-549 lung cancer cells. Kind of series: Morphological features of A-549 lung cancer cells by inverse light microscopy. The series is classed as cell-based. The settings on record: A-549 cells. The method, then: Morphological studies were conducted using a Zeiss Axiovert 25 Inverted Light Microscope [Carl Zeiss, Germany] with photographs taken with an Axio Cam Camera and Axio Vision 3.1 software [Carl Zeiss, Germany] at 100× magnification.
Morphological features of A-549 lung cancer cells evaluated by inverse light microscopy following differential treatments are indicated in FIG. 28: (A)=Untreated Negative Control; (B)=1% DMSO Vehicle Control (VC); (C)=100 μM Cisplatin (CDDP) Positive Apoptotic Control; (D)=Hydrogen Peroxide Positive Necrotic Control; (E)=complex (6) having a molar ratio of 1:1; (F)=Triphenylphosphine Ligand; (G)=complex (9) having a molar ratio of 1:4. Cells were visualised with Zeiss Axiovert 25 Inverted Light Microscope with photographs taken at 100× magnification. Morphology of A-549 lung cancer cells after differential treatments resembled that of the positive apoptotic control with characteristic apoptotic cellular morphology such as blebbing, rounding and cell shrinkage being observed.

For another series, the system named is Caspase-3/7. The series can be described thus: Caspase-Glo 3/7 assay in SNO-oesophageal cancer cells. The settings on record: 10 μM, 24 hours treatment. Further details: increase in Caspase-3/7 expression: unit not given here. The series is classed as cell-based. The method, then:
The Caspase-Glo®3/7 assay was used to confirm that the structural changes observed are due to apoptotic cell death. In this luminescent based assay, a 1:1 ratio of the Caspase-Glo® reagent was added to treated cells into a microtiter plate. The plate was gently agitated for 30 seconds and incubated for 30 minutes at room temperature. The whole luminescent intensity was measured using a Synergy HT Multi-Detection Microplate reader, where the intensity of the luminescence is proportional to the Caspase-3/7 concentration.
The error bars where constructed based on the standard error of the mean (SEM) where n=6. The significant difference were calculated with respect to the vehicle control (P<**0.001). A relative increase in expression was observed throughout.

Series [2] has as its system peripheral blood mononucleocytes (PBMCs). The series can be described thus: Trypan blue viability assay of PBMCs (non-cancerous cells). The series is classed as cell-based. The settings on record: PBMCs from a healthy donor. An excerpt:
To evaluate the relative toxicity on non-tumorigenic tissues, the ideal is to compare the effect of the compounds to a similar cell line that is non-cancerous. The Applicant is currently in the process of purchasing these cell lines and will evaluate the toxicity of the compounds in the near future. However, the Applicant did evaluate the effect of the complexes of the instant invention on peripheral blood mononucleocytes (PBMCs) isolated from fresh whole blood samples from a healthy donor. This already gives a good indication of the potential toxicity of complexes (1)-(5) in an in vivo environment.
The percentage viability of differentially treated PBMCs (peripheral blood mononucleocytes) for complexes (1)-(5) was determined by the Trypan blue viability assay, as shown in FIG. 10. Cells were treated with complexes (1)-(5). Cells treated with 0.1% DMSO and 100 μM Cisplatin were used as a vehicle and apoptotic control respectively. The SEM is indicated as error bars (n=2).

“Also recorded” adds a separate entry of the source.

From patent publication US10583109B2, “Use of silver(I) complexes as anticancer agents” (University of Johannesburg, priority 2012, dated 2020) come the findings set out here.

On to `C1#[N+][Ag]([P+](c2ccccc2)(c2ccccc2)c2ccccc2)([P+](c2ccccc2)(c2ccccc2)c2ccccc2)[S]C#[N+][Ag]([P+](c2ccccc2)(c2ccccc2)c2ccccc2)([P+](c2ccccc2)(c2ccccc2)c2ccccc2)[S]1` [complex (1), [AgSCN(PPh3)2]2], for which the “cytotoxic activity (ranking)” value in series [1] was “strongest”. For the compound `c1ccc([P+](c2ccccc2)(c2ccccc2)[Ag+]([P+](c2ccccc2)(c2ccccc2)c2ccccc2)([P+](c2ccccc2)(c2ccccc2)c2ccccc2)[P+](c2ccccc2)(c2ccccc2)c2ccccc2)cc1` [complex (9), AgNO3(PPh3)4], the “signs of apoptosis (morphology)” value with A-549 lung cancer cells is given as “more effective”. The “increase in Caspase-3/7 expression” value with Caspase-3/7 was found to be 2.74. Consider [AgSCN{P(4-FC6H4)3}2]2 [complex (3)], for which the “cytotoxic activity (ranking)” value in series [1] is reported as “strongest”. Moreover, the “toxicity on PBMCs (decrease in viability)” value in series [2] was “much lower degree of toxicity; also recorded: significantly lower degree of toxicity”.
